Residue numbers refer to the chain shown, from its start. Each block holds one molecule with its values, some of them ahead of it.
Key:
[1] = Cyclic voltammetry of kynurenine metabolites with Cu(II); format: physicochemical; conditions: metabolite 100 μM, cupric chloride 25 μM, PBS pH 7.4
Procedure: Cyclic Voltammetry—Cyclic voltammetry was performed at room temperature (22±2° C.) on ambient solutions using an EG&G PAR potentiostat, Model 273. The potentiostat was operated in Ramp Mode, generating a potential staircase waveform with a 0.25 mV step height. The potential window of +0.15 to −0.4V, in which Cu(I) is electroactive, but the metabolites are not, was scanned in both directions at a rate of 100 mV/sec. The current response was passed through a 5.3 Hz low pass filter. A minimum of three cycles were collected for each scan, ensuring the stability of the electrochemical response. The electrochemical cell consisted of an indium/tin oxide working electrode (Delta Technologies) with an active area of 0.32 cm^2, a platinum wire auxiliary electrode, and a Ag/AgCl (1 M KCl) reference electrode (Microelectrodes Inc.). Both the auxiliary and reference electrodes were positioned in the cell in close proximity to the working electrode. The working electrodes were pretreated with successive 10 minute sonications in Alconox (˜8 g/L), 95% ethanol, Milli-Q purified H2O (2×), and PBS (pH 7.4), followed by an overnight soak in PBS (pH 7.4). The ITO electrodes were subsequently “activated” immediately prior to use by successive cycling in PBS for three cycles in each of the following potential windows: +0.15 ? −0.4 V, +0.4 ? −0.4 V, and +1.0 ? −0.4 V. Cupric chloride (25 μM; Allied Chemical) was used as the Cu(II) source. Background voltammograms were obtained on each new electrode before testing the kynurenine pathway metabolites. PBS solutions of KYN, 3-HK, ANA, and 3-HAA (each at 100 μM) were separately scanned with and without added Cu(II) (25 μM). Each experiment also included a scan of Cu(II) (25 μM) in PBS without added test compound. All solutions were tested within minutes of being prepared. Each test was repeated to ensure the reproducibility of the results.
The voltammograms in FIGS. 3A–3D compare 3-HK and 3-HAA to their corresponding non-phenolic analogs, kynurenine (KYN) and anthranilic acid (ANA), in aqueous solutions of Cu(II) at pH 7.4. […] At potentials above +0.15 V, the metabolites undergo direct irreversible oxidation, a reaction that is not considered further here. Cyclic voltammetry of Cu(II) in PBS yielded a current response at ≈−100 mV due to reduction of the metal ion (scan “b” in each panel).

[2] = Hydrogen peroxide assay (DCF fluorometric); format: biochemical; conditions: for hydrogen peroxide generated: ambient gas conditions, CHELEX-treated PBS, FIG. 4C
Procedure: Hydrogen Peroxide Assay—The fluorometric assay for hydrogen peroxide is based on the dichlorofluorescein diacetate (DCF) method (Molecular Probes, Eugene, Oreg.). The DCF solution (5 mM) in 100% ethanol was deacetylated in the presence of 0.01 M NaOH for 30 minutes and neutralized. Horseradish peroxidase (200 U/ml) was then added and the DCF concentration adjusted to 200 μM in PBS. The reaction solutions were carried out in PBS, pH 7.4, in a 96-well format plate (total volume=300 μL/well) and contained a test compound (KYN, 3-HK, 3-HAA, ANA, or ASC, each at 10 μM), deacetylated DCF (20 μM), and Cu(II)-glycine (1 μM) as indicated, incubated at 37° C. for 60 minutes. […] Abolition of the reading by co-incubation with catalase (1000 U/ml) was used for establishing H2O2 specificity. The fluorescent readings were recorded by a Packard FLURORCOUNT™ fluorescent plate reader with a 485 nm excitation filter and 530 nm emission filter. Concentrations were determined by comparison to a standard curve using reagent grade hydrogen peroxide in CHELEX™ chelating ion exchanae resin-treated PBS buffer, pH 7.4.
Reactions were conducted in the absence of added Cu(II), in the presence of added glycine-complexed Cu(II) (1 μM), in the presence of added glycine-complexed Cu(II) (1 μM) and catalase (1000 U/ml), or with added glycine-complexed Cu(II) (1 μM) and the copper chelator triethylenetetramine (TETA, 200 μM).

[3] = Superoxide assay (dihydroethidium fluorometric); format: biochemical; conditions: for effect of Cu(II) on superoxide generation / superoxide production: test compound 10 μM; for effect of Cu(II) on superoxide generation: Cu(II)-glycine 1 μM; for superoxide production: ambient oxygen, dark, 60 minutes
Procedure: Superoxide Assay—The fluorometric assay for superoxide is based upon the dihydroethidium (DHE, HYDROETHDNE™) method (Molecular Probes, Eugene, Oreg.) and used according to the manufacturer's instructions. DHE (1 mM) was freshly prepared in 100% argon-sparged DMSO. The reaction solutions were carried out in PBS, pH 7.4, under ambient gas conditions, in 96-well format plates and contained a test compound (KYN, 3-HK, 3-HAA, and ANA, each at 10 μM), DHE (100 μM), +/− Cu(II)-glycine (1 μM) and incubated at 37EC for 60 minutes. […] Abolition of the reading by co-incubation with superoxide dismutase (1000 U/ml) was used for establishing superoxide specificity. The fluorescent readings were recorded by a Packard FLUOROCOUNT™ fluorescent plate reader with a 510 nm excitation filter and 590 nm emission filter. Potassium superoxide dissolved in degassed DMSO was used as a positive control.

[4] = target: T1, recombinant human αB-crystallin (Homo sapiens, UniProt P02511); test: Recombinant human αB-crystallin cross-linking (SDS-PAGE, silver stain); format: biochemical; conditions: data not shown
T1 construct: gift of Dr. J. Liang, Brigham and Women's Hospital
T1 sequence (P02511 1-175): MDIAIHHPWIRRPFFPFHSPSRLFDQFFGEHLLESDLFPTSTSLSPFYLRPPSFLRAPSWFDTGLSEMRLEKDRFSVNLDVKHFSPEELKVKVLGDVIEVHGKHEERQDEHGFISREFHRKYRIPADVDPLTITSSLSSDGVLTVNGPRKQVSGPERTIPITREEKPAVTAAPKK
Procedure: Various solutions containing 3-HK (10 μM) or other kynurenine pathway metabolites (10 μM), Cu(II)-glycine (10 μM), Fe(III)-citrate (10 μM), and triethylenetetramine (TETA, 200 μM), were added in combinations as indicated. […] After incubation, aliquots of the total lens protein solutions were mixed with sample buffer containing 4% SDS and 5% β-mercaptoethanol, heated to 95° C. for 5 minutes, and loaded at 1 μg/lane on a 10–20% Tricine gel (Novex, San Diego, Calif.). […] For the experiments with recombinant αB-crystallin, aliquots of the protein solutions were mixed with sample running buffer containing NuPAGE sample buffer (Novex, San Diego, Calif.) and 10% β-mercaptoethanol, heated to 95° C. for 5 minutes, spun briefly, then loaded on a NuPAGE 4–12% Bis-Tris polyacrylamide gel at 375 ng/lane and electrophoresed with denaturing 3-(N-morpholino)propanesulfonic acid (MOPS)-SDS running buffer according to the manufacturer's recommendations.
To exclude the effects of other lens proteins on the observed findings in FIG. 5, these interactions with purified recombinant human αB-crystallin were examined.

[5] = Metal reduction assay, Cu(II) to Cu(I) (BC/BCA indicator); format: biochemical; conditions: chelator 250 μM
Procedure: Metal Reduction Assays—Assays were performed using a 96-well microtiter plate (Costar, Mass.). Test compounds from the kynurenine pathway (10 μM) or, as a positive control, ascorbic acid (ASC, 10 μM) were co-incubated with either Fe(III)-citrate (25 μM) and the Fe(II) indicator bathophenanthroline disulfonic acid (BP, 250 μM), or Cu(II)-glycine (25 μM) and the Cu(I) indicator bathocuproine disulfonic acid (BC) or bicinchoninic acid (BCA, 250 μM). Incubations were conducted in PBS, pH 7.4, at 37° C. in the dark for one hour. Absorbencies were then measured using a plate reader (SPECTRAmax Plus, Molecular Devices, CA) at the appropriate wavelengths: Fe(II)-BP complex at 535 nm (the known molar absorption coefficient, M535,=22140 M^−1 cm^−1), Cu(I)-BC complex at 483 nm, M483=12250 M^−1cm^−1), or Cu(I)-BCA complex at 562 nm, M562=7700 M^−1cm^−1). In control samples, absorbance from the metal ion and indicator in the absence of test compound and the absorbance of test compound in the presence of metal ions, but in the absence of indicator, were determined. The absorbencies from these controls were deducted from those obtained in the presence of the test compound, metal and indicator to yield the net absorbance (ΔA). Fe(II) or Cu(I) concentrations (μM) were calculated according to the formula: C(μM)=ΔA*10^6/Mλ.
The compounds comprising the kynurenine pathway (FIG. 1) were assayed for their ability to reduce […] and Cu(II) (FIG. 2A). […] Values represent the mean±SD for three independent measurements.

αB-crystallin = target: T2, αB-crystallin (Bos taurus, UniProt P02510); test: αB-crystallin cross-linking in total calf lens protein (Western blot); conditions: metabolite 10 μM, no added Cu(II), five days 37° C. dark
T2 sequence (P02510 1-175): T1 sequence (P02511 1-175) with T40A, F61I, T132A, V152A

α-crystallin = target: T3, α-crystallin (Bos taurus, UniProt P02470+P02510); test: α-Crystallin modification under longwave ultraviolet illumination; format: biochemical; conditions: exposure of α-crystallin in the presence of longwave ultraviolet illumination
T3 sequence (P02470 1-173): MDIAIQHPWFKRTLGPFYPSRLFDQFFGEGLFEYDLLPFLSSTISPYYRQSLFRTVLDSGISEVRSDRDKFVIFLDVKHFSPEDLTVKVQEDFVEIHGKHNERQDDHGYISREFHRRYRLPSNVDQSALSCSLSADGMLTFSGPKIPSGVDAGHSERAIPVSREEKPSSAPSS
T3 sequence (P02510 1-175): T1 sequence (P02511 1-175) with T40A, F61I, T132A, V152A

[6] = Metal reduction capacity of tanned calf lens α-crystallin, Cu(II); format: biochemical; conditions: α-crystallin preparation 100 μg/ml, Cu(II)-glycine 25 μM, one hour 37° C.
Procedure: Studies of Tanned Calf Lens Crystalin in Assay of Crystallin Protein for Metal Reduction Capacity—α-Crystallin (10 mg/ml) from calf lens was modified by reaction with 3-HK (100 μM), 3-HAA (100 μM), or ASC (100 μM) in PBS, ph 7.4, for 12 hours at 4° C. in the dark. Control samples were incubated with ascorbic acid (100 μM) or without added reductant. The tanning incubation solutions also contained triethylenetetramine (TETA, 200 μM) to prevent cross-linking of the protein. After incubation, free reductant was removed from the tanned α-crystallin preparations by exhaustive dialysis at 4EC in the dark utilizing PBS, pH 7.4, containing CHELEX™ 100 chelating ion exchange resin (BioRad, Hercules, Calif.). The various modified α-crystallin preparations (100 μg/ml) were co-incubated with either Cu(II)-glycine glycine (25 μM) or Fe(III)-citrate (25 μM) for one hour at 37° C. and assayed for metal reduction capacity using the BC and BP spectrophotometric assay as detailed above. Incubated and dialyzed α-crystallin (100 μg/ml) and untreated α-crystallin (100 μg/ml) preparations were used for procedural control.
3-HK: α-crystallin reduced nearly 100% of the available Cu(II) and approximately 20% of the available Fe(III). 3-HAA: α-crystallin reduced approximately 65% of the available Cu(II).

Molecule: Nc1ccccc1C(=O)O [ANA, anthranilic acid]
Cu(II) reduction wave in presence of metabolite [1]: largely unaffected | hydrogen peroxide generated [2]: approx. 0.3 μM | effect of Cu(II) on superoxide generation [3]: did not promote | superoxide production [3]: negligible

inhibition of αB-crystallin cross-linking by 3-HK or 3-HAA and Cu(II) [4]: did not inhibit
Molecule: C[S+](C)[O-] [DMSO, dimethyl sulfoxide]

Molecule: O=C(O)CN(CCN(CC(=O)O)CC(=O)O)CCN(CC(=O)O)CC(=O)O [DTPA, diethylenetriaminepentaacetic acid, reference compound]
effect of chelator on metal reduction by 3-HK, 3-HAA and XA [5]: abolished

αB-crystallin cross-linking (αB-crystallin): does not induce | capacity of altered α-crystallin to reduce metal and generate hydrogen peroxide (α-crystallin): dramatically enhanced capacity
Molecule: Nc1ccccc1C(=O)C[C@H](N)C(=O)O [KYN, L-kynurenine]
Cu(II) reduction wave in presence of metabolite [1]: largely unaffected | hydrogen peroxide generated [2]: approx. 0.3 μM | effect of Cu(II) on superoxide generation [3]: did not promote | superoxide production [3]: negligible

inhibition of αB-crystallin cross-linking by 3-HK or 3-HAA and Cu(II) [4]: did not inhibit
Molecule: OC[C@@H](O)[C@@H](O)[C@H](O)[C@H](O)CO [mannitol]

Molecule: O=C(O)c1ccccc1O [salicylate]
inhibition of αB-crystallin cross-linking by 3-HK or 3-HAA and Cu(II) [4]: did not inhibit

Molecule: catalase [reference compound]
inhibition of αB-crystallin cross-linking by 3-HK or 3-HAA and Cu(II) [4]: neither catalase nor superoxide dismutase were capable of inhibiting | effect on hydrogen peroxide generation by 3-HK or 3-HAA ([2]; Cu(II) 1 μM, catalase 1000 U/ml or TETA 200 μM): abolished

Molecule: superoxide dismutase [reference compound]
inhibition of αB-crystallin cross-linking by 3-HK or 3-HAA and Cu(II) [4]: neither catalase nor superoxide dismutase were capable of inhibiting | effect on superoxide production by 3-HAA ([3]; superoxide dismutase 1000 U/ml): removed

B1: 3-HAA: α-crystallin: calf lens α-crystallin modified (tanned) by reaction with 3-HAA, free metabolite removed by dialysis (protein, UniProt P02470 1-173; P02510 1-175, looked up)
Alpha-crystallin A chain: T3 sequence (P02470 1-173)
Alpha-crystallin B chain: T1 sequence (P02511 1-175) with T40A, F61I, T132A, V152A
modifications: modified with 3-hydroxyanthranilic acid
notes: calf lens α-crystallin modified (tanned) by reaction with 3-HAA, free metabolite removed by dialysis
reduction of available Cu(II) [6]: approximately 65%
